“Also recorded” adds a separate entry of the source. Like-named read-outs stand apart in the source and are kept apart here.
Legend:
[1] = test system: transduced Dubca cells overexpressing human Panx1; settings: dromedary camel
[2] = cited from earlier work
Panx1 mRNA expression = Panx1 mRNA expression by RT-qPCR analysis; assay type: cell-based, human; settings: 24 h exposure, BC, BC/2, BC/10
[3] = test system: transduced Dubca cells overexpressing human Panx1; experiment: Cell viability (MTT) assay, 24 h exposure, for CC10 determination; settings: sigmoidal curve fit
human Panx1 channels = molecular target: T1, human Panx1 channels (Homo sapiens, UniProt Q96RD7); experiment: Panx1 channel activity assay (extracellular ATP release after osmotic shock); assay type: cell-based; settings: for Concentration with significant inhibition of Panx1 channel activity (extracellular ATP release): 45 min exposure (15 min preincubation + 30 min osmotic buffer), combination given as final lopinavir concentration; for Effect on extracellular ATP release / Panx1 channel activity (in words): 45 min exposure, six concentrations BC/10 to BCx10
T1 construct: expressed in transfected cells; host or cells: Dubca cells, transduced, stably overexpressing human Panx1

Panx1 protein expression = Panx1 protein expression by immunoblot analysis; assay type: cell-based, human; settings: 24 h exposure, BC, BC/2, BC/10; total Panx1 and glycosylated isoforms
[4] = Cell viability (MTT) assay, 45 min exposure in classic buffer; settings: dromedary camel, transduced Dubca cells overexpressing human Panx1
[5] = maximum plasma concentration extracted from literature and recalculated to µM, reference per cell

T1 sequence (Q96RD7 whole entry): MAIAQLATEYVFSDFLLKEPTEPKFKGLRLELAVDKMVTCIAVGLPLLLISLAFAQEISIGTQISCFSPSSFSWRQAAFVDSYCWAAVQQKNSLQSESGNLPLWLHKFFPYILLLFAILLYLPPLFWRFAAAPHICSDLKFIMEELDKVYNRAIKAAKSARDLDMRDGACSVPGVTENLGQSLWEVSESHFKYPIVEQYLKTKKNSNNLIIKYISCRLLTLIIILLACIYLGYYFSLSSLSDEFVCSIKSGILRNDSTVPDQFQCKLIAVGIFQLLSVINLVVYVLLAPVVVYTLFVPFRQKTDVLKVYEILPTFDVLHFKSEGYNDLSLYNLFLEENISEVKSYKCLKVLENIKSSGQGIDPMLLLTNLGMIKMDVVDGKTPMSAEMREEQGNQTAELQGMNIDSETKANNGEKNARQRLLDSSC

Row | Compound | CC10 (concentration inducing 10% of cell death) [1] | Cmax [2, 5] | Effect on Panx1 mRNA levels (Panx1 mRNA expression) | CC10 (concentration inducing 10% of cell death) [3] | Effect on extracellular ATP release / Panx1 channel activity (in words) (human Panx1 channels) | Effect on Panx1 protein levels (Panx1 protein expression) | other results
1 | C[C@@H]1C[C@H]2[C@@H]3CCC4=CC(=O)C=C[C@]4(C)[C@@]3(F)[C@@H](O)C[C@]2(C)[C@@]1(O)C(=O)CO [Dexamethasone, dexamethasone] | >200 µM | 0.63 µM | – | – | – | – | –
2 | Cc1cccc(C)c1OCC(=O)N[C@@H](Cc1ccccc1)[C@@H](O)C[C@H](Cc1ccccc1)NC(=O)[C@H](C(C)C)N1CCCNC1=O [Lopinavir, lopinavir] | – | – | without affecting mRNA or protein levels | 17 µM | significant decrease in extracellular ATP release; also recorded: inhibit Panx1 channel activity | without affecting mRNA or protein levels | Concentration with significant inhibition of Panx1 channel activity (extracellular ATP release) (human Panx1 channels): 85 µM
3 | CCC(CC)COC(=O)[C@H](C)N[P@](=O)(OC[C@H]1O[C@@](C#N)(c2ccc3c(N)ncnn23)[C@H](O)[C@@H]1O)Oc1ccccc1 [Remdesivir] | >100 µM | 9.03 µM | – | – | comparable concentration-dependent trend | – | –
4 | NC(=O)c1nc(F)c[nH]c1=O [Favipiravir, favipiravir] | – | – | without affecting mRNA or protein levels | >200 µM | significant decrease in extracellular ATP release; also recorded: inhibit Panx1 channel activity | without affecting mRNA or protein levels | Cmax ([2]; in vivo): 53.4 µM
5 | CC(C)c1nc(CN(C)C(=O)N[C@H](C(=O)N[C@@H](Cc2ccccc2)C[C@H](O)[C@H](Cc2ccccc2)NC(=O)OCc2cncs2)C(C)C)cs1 [Ritonavir, ritonavir] | – | 22.5 µM | – | 12 µM | did not decrease extracellular ATP release | – | –
6 | CCN(CC)CCCC(C)Nc1ccnc2cc(Cl)ccc12 (stereo not drawn) [Chloroquine (diphosphate), chloroquine diphosphate] | 18 µM | 0.81 µM | – | – | – | – | –
7 | CC[C@H]1OC(=O)[C@H](C)[C@@H](O[C@H]2C[C@@](C)(OC)[C@@H](O)[C@H](C)O2)[C@H](C)[C@@H](O[C@@H]2O[C@H](C)C[C@H](N(C)C)[C@H]2O)[C@](C)(O)C[C@@H](C)CN(C)[C@H](C)[C@@H](O)[C@]1(C)O [Azithromycin (dihydrate), azithromycin dihydrate] | – | 0.52 µM | – | 59 µM | – | – | viability at 45 min, 590 µM [4]: 74%
8 | CCN(CCO)CCCC(C)Nc1ccnc2cc(Cl)ccc12 (stereo not drawn) [Hydroxychloroquine (sulphate), hydroxychloroquine sulphate] | – | 0.97 µM | without affecting mRNA or protein levels | 23 µM | – | without affecting mRNA or protein levels | Concentration with significant inhibition of Panx1 channel activity (extracellular ATP release) (human Panx1 channels): 23 µM; Effect on extracellular ATP release / Panx1 channel activity (in words) (human Panx1 channels; listed as hydroxychloroquine): inhibit Panx1 channel activity; Effect on extracellular ATP release / Panx1 channel activity (in words) (human Panx1 channels; listed as hydroxychloroquine sulphate): significant decrease in extracellular ATP release

From article PMC9146942 (International Journal of Molecular Sciences, 2022)
